Assay results reported in patent publication US8846639B2, “Oligomeric compounds comprising bicyclic nucleosides and having reduced toxicity” (Isis Pharmaceutical, Inc., priority 2008, dated 2014).
“And” between values parts separate entries of the source, which are not always exact repeats. Identical values can stand only once. Values belong to the substance of their own block, whether it stands above or below them.

Legend:
[1] = system: PTEN mRNA; test: PTEN mRNA levels in liver, real-time PCR (Example 14 in vivo study); set-up: species or system mice; conditions: for PTEN mRNA levels (% inhibition): liver, 72 h
Description: (§1) Six week old male Balb/c mice (Jackson Laboratory, Bar Harbor, Me.) were administered a single intraperitoneal (i.p) injection with 4′-CH2—O-2′ BNA containing oligomers (392745 and 392063) and 6(S)-4′-CH(CH3)—O-2′ BNA containing oligomers (392749 and 411847) at a does of 3.2, 10, 32, 66 and 100 mg/kg. Oligomers 392063 and 411847 contain LNA nucleosides with methylated pyrimidines, and oligomers 392745 and 392749 contain LNA nucleosides with non-methylated pyrimidines in the wings. All intemucleoside linkages are phosphorothioates, nucleosides not followed by a subscript are βD-2′-deoxyribonucleosides, nucleosides followed by a subscript 1 are 4′-CH2—O-2′ modified bicyclic nucleosides, nucleosides followed by a subscript S are 6(S)-4′-CH(CH3)—O-2′ modified bicyclic nucleosides wherein S indicates the configuration at the 6 carbon atom and ^MeC indicates a 5′-methyl cytosine nucleoside.
Each dose group consisted of four animals. The mice were sacrificed 72 hours following the final administration to determine the PTEN mRNA levels in liver using real-time PCR and RIBOGREEN® RNA quantification reagent (Molecular Probes, Inc. Eugene, Oreg.) according to standard protocols. PTEN mRNA levels were determined relative to total RNA (using Ribogreen), prior to normalization to saline-treated control. Results are listed below as the average % inhibition of mRNA expression for each treatment group, normalized to saline-injected control.
Estimated ED50 concentrations for each oligomers were calculated using Graphpad Prism. ED50 is the dose at which 50% mRNA reducation is observed.

[2] = Liver transaminase (ALT) levels in serum (Example 14); assay type: in vivo, mice
Description: as §1
Liver transaminase levels, alanine aminotranferease (ALT) and aspartate aminotransferase (AST), in serum were also measured relative to saline injected mice. Increases in the transaminase levels can indicate hepatotoxicity. The approximate liver transaminase levels are listed below.

[3] = Body weight at sacrifice relative to pre-dose (Example 15); assay type: in vivo, mice; conditions: 72 h, PBS = 99
Description: (§2) Mice were divided into 9 groups, with 4 mice in each group. The mice of 8 groups received a single dose, administered i.p., of one of the above oligomeric compounds at a dose of 100, 32, 10, or 3.2 mg/kg. The final group was dosed with phosphate buffered saline (PBS) as a control. The mice were sacrificed 72 hours after administration. Antisense activity was determined by measuring PTEN RNA in liver.
(§3) Body weight was measured before treatment and again at sacrifice 72 hours after treatment.

[4] = Spleen weight as a measure of inflammatory response (Example 15); assay type: in vivo, mice; conditions: relative to PBS control
Description: as §2
(§4) Spleens were weighed as a measure of inflammatory response.

[5] = Serum ALT, individual animals (Example 15); assay type: in vivo, mice; conditions: serum, four animals
Description: as §2

[6] = system: PTEN RNA; test: PTEN RNA in liver (Example 15 in vivo study); set-up: species or system mice; conditions: 72 h, compared to PBS control
Description: (§5) Six week old male Balb/c mice (Jackson Laboratory, Bar Harbor, Me.) were administered a single intraperitoneal (i.p) injection of oligomers as set forth in the table below.
as §2

[7] = Body weight at sacrifice relative to pre-dose (Example 16); assay type: in vivo, mice; conditions: 72 h, PBS = 102
Description: as §2, with “17” for “9”, “16” for “8”, “liver and is expressed as % reduction compared to PBS control mice.” for “liver.”
as §3

[8] = Serum ALT, individual animals (Example 16); assay type: in vivo, mice; conditions: four animals
Description: as §2, with “17” for “9”, “16” for “8”, “liver and is expressed as % reduction compared to PBS control mice.” for “liver.”
Toxicity was assessed by measuring alanine aminotranferease (ALT) in serum.

[9] = Spleen weight as a measure of inflammatory response (Example 16); assay type: in vivo, mice; conditions: relative to PBS control
Description: as §2, with “17” for “9”, “16” for “8”, “liver and is expressed as % reduction compared to PBS control mice.” for “liver.”
as §4

[10] = system: PTEN RNA; test: PTEN RNA in liver (Example 16 in vivo study); set-up: species or system mice; conditions: for % Reduction PTEN RNA: liver, 72 h, compared to PBS control; for ED50: PTEN RNA in liver
Description: as §5
as §2, with “17” for “9”, “16” for “8”, “liver and is expressed as % reduction compared to PBS control mice.” for “liver.”

Substance: CSUSTAGCACTGGCCSUS [ISIS 392749]
- PTEN mRNA levels (% inhibition) ([1]; 3.2 mg/kg single i.p.): 14%
- PTEN mRNA levels (% inhibition) ([1]; 10 mg/kg single i.p.): 20%
- PTEN mRNA levels (% inhibition) ([1]; 32 mg/kg single i.p.): 81%
- PTEN mRNA levels (% inhibition) ([1]; 66 mg/kg single i.p.): 92%
- PTEN mRNA levels (% inhibition) ([1]; 100 mg/kg single i.p.): 93%
- ED50 ([1]; estimated, Graphpad Prism, dose at which 50% mRNA reduction is observed): 15 mg/kg
- ALT levels ([2]; 3.2 mg/kg, serum, saline = 24): 18 IU/L
- ALT levels ([2]; 10 mg/kg, serum, saline = 24): 24 IU/L
- ALT levels ([2]; 32 mg/kg, serum, saline = 24): 14 IU/L
- ALT levels ([2]; 66 mg/kg, serum, saline = 24): 18 IU/L
- ALT levels ([2]; 100 mg/kg, serum, saline = 24): 33 IU/L
- ALT levels ([2]; all doses): not elevated to a level indicative of hepatotoxicity

- spleen weight, % Control ([4]; 3.2 mg/kg): 95%
- spleen weight, % Control ([4]; 10 mg/kg): 100%
- spleen weight, % Control ([4]; 32 mg/kg): 97%
- spleen weight, % Control ([4]; 100 mg/kg): 120%
Substance: Cas Uas Tds Ads Gds Cds Ads Cds Tds Gds Gds Cds Cas Ua [ISIS 396006]
- % of pre-dose weight ([3]; 3.2 mg/kg): 100%
- % of pre-dose weight ([3]; 10 mg/kg): 101%
- % of pre-dose weight ([3]; 32 mg/kg): 101%
- % of pre-dose weight ([3]; 100 mg/kg): 100%
- ALT levels - Individual animals ([5]; 3.2 mg/kg): 27 IU/L and 19 IU/L and 17 IU/L and 24 IU/L
- ALT levels - Individual animals ([5]; 10 mg/kg): 18 IU/L and 22 IU/L and 19 IU/L and 20 IU/L
- ALT levels - Individual animals ([5]; 32 mg/kg): 24 IU/L and 19 IU/L and 15 IU/L and 23 IU/L
- ALT levels - Individual animals ([5]; 100 mg/kg): 28 IU/L (2×) and 23 IU/L (2×)
- % Reduction PTEN RNA ([6]; 3.2 mg/kg single i.p.): 47%
- % Reduction PTEN RNA ([6]; 10 mg/kg single i.p.): 77%
- % Reduction PTEN RNA ([6]; 32 mg/kg single i.p.): 95%
- % Reduction PTEN RNA ([6]; 100 mg/kg single i.p.): 97%

- spleen weight, % Control ([9]; 3.2 mg/kg): 89%
- spleen weight, % Control ([9]; 10 mg/kg): 96%
- spleen weight, % Control ([9]; 32 mg/kg): 110%
- spleen weight, % Control ([9]; 100 mg/kg): 96%
Substance: Cjs Uos Tds Ads Gds Cds Ads Cds Tds Gds Gds Cds Cjs Uj [ISIS 443393]
- % pre-dose wt ([7]; 3.2 mg/kg): 101%
- % pre-dose wt ([7]; 10 mg/kg): 104%
- % pre-dose wt ([7]; 32 mg/kg): 99%
- % pre-dose wt ([7]; 100 mg/kg): 98%
- ALT levels - Individual animals ([8]; 3.2 mg/kg): 19 IU/L and 36 IU/L and 83 IU/L and 20 IU/L
- ALT levels - Individual animals ([8]; 10 mg/kg): 26 IU/L and 33 IU/L and 30 IU/L and 29 IU/L
- ALT levels - Individual animals ([8]; 32 mg/kg): 21 IU/L and 24 IU/L and 53 IU/L (2×)
- ALT levels - Individual animals ([8]; 100 mg/kg): 16 IU/L and 22 IU/L and 42 IU/L and 23 IU/L
- % Reduction PTEN RNA ([10]; 3.2 mg/kg single i.p.): 10%
- % Reduction PTEN RNA ([10]; 10 mg/kg single i.p.): 35%
- % Reduction PTEN RNA ([10]; 32 mg/kg single i.p.): 64%
- % Reduction PTEN RNA ([10]; 100 mg/kg single i.p.): 91%
- ED50 [10]: 16.2 mg/kg

- spleen weight, % Control ([9]; 3.2 mg/kg): 98%
- spleen weight, % Control ([9]; 10 mg/kg): 92%
- spleen weight, % Control ([9]; 32 mg/kg): 101%
- spleen weight, % Control ([9]; 100 mg/kg): 109%
Substance: Cxs Uxs Tds Ads Gds Cds Ads Cds Tds Gds Gds Cds Cxs Ux [ISIS 445544]
- % pre-dose wt ([7]; 3.2 mg/kg): 103%
- % pre-dose wt ([7]; 10 mg/kg): 101%
- % pre-dose wt ([7]; 32 mg/kg): 102%
- % pre-dose wt ([7]; 100 mg/kg): 98%
- ALT levels - Individual animals ([8]; 3.2 mg/kg): 21 IU/L and 28 IU/L and 30 IU/L and 36 IU/L
- ALT levels - Individual animals ([8]; 10 mg/kg): 23 IU/L and 33 IU/L and 20 IU/L and 36 IU/L
- ALT levels - Individual animals ([8]; 32 mg/kg): 23 IU/L and 38 IU/L and 19 IU/L and 22 IU/L
- ALT levels - Individual animals ([8]; 100 mg/kg): 977 IU/L and 1061 IU/L and 88 IU/L and 133 IU/L
- % Reduction PTEN RNA ([10]; 3.2 mg/kg single i.p.): 31%
- % Reduction PTEN RNA ([10]; 10 mg/kg single i.p.): 72%
- % Reduction PTEN RNA ([10]; 32 mg/kg single i.p.): 93%
- % Reduction PTEN RNA ([10]; 100 mg/kg single i.p.): 95%
- ED50 [10]: 4.9 mg/kg
